Molecules are shown by their SMILES. A value given as a limit tells only on which side of the number the result lay.

Experiment [1] has as its target WDR5 (Homo sapiens, UniProt P61964). The experiment is described as follows: WDR5 HTRF binding assay. The conditions noted are these: read-out: (a) WDR5 HTRF Pep Val v.1[Inhibitor/IC50]Qualified AC50. An outline of the steps: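 In this HTRF displacement format, biotinylated MLL1 WIN peptide (3762-3773, 20 nM) binds WDR5 (6 nM) in 25 mM Hepes pH 7.5 with 100 mM NaCl, 2 mM DTT and 0.1% BSA for 20 min at rt. Detection used streptavidin-APC/anti-His-Eu for 1 hr. IC50 came from dose-response fits of normalized signal; 15 nM biotin-PEG-His peptide served as counter assay.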
For orientation: Time-resolved FRET reads energy transfer from a long-lived donor to a nearby acceptor.

Experiment [2] has as its target wild type MLL1 four-member complex (MLL1-4C) (Homo sapiens, UniProt P61964). The experiment is described as follows: MLL1 LC-MS assay (SAH production). It is filed as biochemical. The conditions noted are these: read-out: (b) MLL LCMS Peptide Val.v.1 Qualified AC50. Put shortly:
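SAH formation, measured by LC-MS/MS after a TFA quench containing d4-SAH, was normalised to no-compound and no-enzyme controls and fitted to a dose-response curve for IC50. Reactions ran 120 min at rt (pH 8.0 Tris buffer) with final 30 nM MLL1 four-member complex, 2.5 μM SAM and 10 μM biotinylated H3[1-21] peptide, after a 20-min enzyme/SAM-compound preincubation.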

Experiment [3] relates to MV4-11 cells. The experiment is described as follows: MV4-11 6-day cell growth CTG (CellTiter-Glo) assay. The settings on record: Homo sapiens, MV4-11, 144 h, 6 days, read-out: (c) MLL/WDR5 cell proliferation assay//MLL/WDR5 proliferation MV4:11 Qualified AC50. In kind it is cell-based. An outline of the steps:
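IC50 comes from a dose-response fit of % inhibition relative to DMSO controls, with viable cells measured by CellTiter-Glo luminescence. Compounds were tested over 12 points (1:3, starting at 50 μM final) on MV4-11 cells plated at 300/well and grown 6 days.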
A general note: Cellular ATP, detected with luciferase, serves as a proxy for viable cell number.

For the compound `CCOc1cc(C(C)N2CCc3c(cc(CCN(C)CC)cc3-c3cc(O)cnc3C)C2=O)ncc1C#N` (stereo not drawn) [Example 150, 4-ethoxy-6-(1-(7-(2-(ethyl(methyl)amino)ethyl)-5-(5-hydroxy-2-methylpyridin-3-yl)-1-oxo-3,4-dihydroisoquinolin-2(1H)-yl)ethyl)nicotinonitrile], the IC50 in experiment [1] lay in the range of 10 to 1000 nM. Besides, the AC50 in experiment [2] and in experiment [3] was 10 to 1000 nM each time.
On to `CNc1nccn1Cc1cc(-c2cc(CO)cnc2Cl)c2ccn(Cc3cccc(OC)c3)c(=O)c2c1` [Example 100, 5-(2-chloro-5-(hydroxymethyl)pyridin-3-yl)-2-(3-methoxybenzyl)-7-((2-(methylamino)-1H-imidazol-1-yl)methyl)isoquinolin-1(2H)-one], for which, in experiment [1], the IC50 was in the range of 10 to 1000 nM. The AC50 in experiment [2] and in experiment [3] was 10 to 1000 nM throughout.
Consider `CCN(C)CCc1cc2c(c(-c3cn(C)nc3C)c1)CCN([C@@H](C)c1cnc(F)c(OC)c1)C2=O` [Example 123, (S)-5-(1,3-dimethyl-1H-pyrazol-4-yl)-7-(2-(ethyl(methyl)amino)ethyl)-2-(1-(6-fluoro-5-methoxypyridin-3-yl)ethyl)-3,4-dihydroisoquinolin-1(2H)-one], for which the IC50 in experiment [1] was under 10 nM. For the same compound, the AC50 in experiment [2] and in experiment [3] was 10 to 1000 nM each time.
In the case of `CCOc1cc([C@H](C)N2CCc3c(cc(CCN(C)CC)cc3C(O)C(C)C)C2=O)ncc1C#N` (stereo partly drawn) [Example 256, 4-ethoxy-6-((1S)-1-(7-(2-(ethyl(methyl)amino)ethyl)-5-(1-hydroxy-2-methylpropyl)-1-oxo-3,4-dihydroisoquinolin-2(1H)-yl)ethyl)nicotinonitrile], in experiment [1], the IC50 was in the range of 10 to 1000 nM. The AC50 in experiment [2] and in experiment [3] was 10 to 1000 nM throughout.
With `CCOc1cc([C@H](C)N2CCc3c(cc(Cn4ccnc4C)cc3-c3ccnn3C)C2=O)ncc1C#N` [Example 279], the IC50 in experiment [1] is under 10 nM. Further, the AC50 in experiment [2] and in experiment [3] was 10 to 1000 nM throughout.
Turning to `CCOc1cc(C(C)N2CCc3c(cc(CCN(C)CC)cc3-c3cc(Cl)nnc3C)C2=O)ncc1C#N` (stereo not drawn) [Example 203, 6-(1-(5-(6-chloro-3-methylpyridazin-4-yI)-7-(2-(ethyl(methyl)amino)ethyl)-1-oxo-3,4-dihydroisoquinolin-2(1H)-yl)ethyl)-4-ethoxynicotinonitrile], the IC50 in experiment [1] lay in the range of 10 to 1000 nM. The AC50 in experiment [2] and in experiment [3] was 10 to 1000 nM in each case.
On to `CCOc1cc(CN2CCc3c(cc(Cn4ccnc4NC)cc3C3CC3)C2=O)cnc1C#N` [Example 84, 5-((5-cyclopropyl-7-((2-(methylamino)-1H-imidazol-1-yl)methyl)-1-oxo-3,4-dihydroisoquinolin-2(1H)-yl)methyl)-3-ethoxypicolinonitrile], for which the IC50 in experiment [1] was in the range of 10 to 1000 nM. For the same compound, the AC50 in experiment [2] and in experiment [3] was 10 to 1000 nM in each case.
For the compound `CCOc1cc([C@H](C)N2CCc3c(cc(Cn4ccnc4C)cc3[C@@H]3CCCN3C)C2=O)ncc1C#N` (single isomer, unassigned) [Example 266], the IC50 in experiment [1] lay in the range of 1000 to 25000 nM. Moreover, the AC50 in experiment [2] and in experiment [3] was 1000 to 25000 nM in each case.
On to `CNc1nccn1Cc1cc(CN(C)CC(F)(F)F)c2c(c1)C(=O)N([C@@H](C)c1cc(OC)c(F)cn1)CC2` [Example 47, (S)-2-(1-(5-fluoro-4-methoxypyridin-2-yl)ethyl)-5-((methyl(2,2,2-trifluoroethyl)amino)methyl)-7-((2-(methylamino)-1H-imidazol-1-yl)methyl)-3,4-dihydroisoquinolin-1(2H)-one], for which the IC50 in experiment [1] was 10 to 1000 nM. Besides, the AC50 in experiment [2] and in experiment [3] was 10 to 1000 nM throughout.
In the case of `CCOc1cc([C@H](C)N2CCc3c(cc(CCN(C)CC(C)O)cc3-c3cn(C)c(=O)cc3Cl)C2=O)ncc1C#N` (stereo partly drawn) [Example 239], in experiment [1], the IC50 was under 10 nM. Also, the AC50 in experiment [2] and in experiment [3] was 10 to 1000 nM each time.
`CCOc1cc(C(C)N2CCc3c(cc(CCN(C)CCF)cc3-c3cc(C)ncc3C)C2=O)ncc1C#N` (stereo not drawn) [Example 248]: the IC50 in experiment [1] is 10 to 1000 nM. Also, the AC50 in experiment [2] and in experiment [3] was 10 to 1000 nM throughout.
For the compound `CCOc1cc([C@H](C)N2CCc3c(cc(CCN(C)CC)cc3-c3cn(C)c(=O)c(C)c3C)C2=O)ncc1C#N` [Example 125, (S)-4-ethoxy-6-(1-(7-(2-(ethyl(methyl)amino)ethyl)-1-oxo-5-(1,4,5-trimethyl-6-oxo-1,6-dihydropyridin-3-yl)-3,4-dihydroisoquinolin-2(1H)-yl)ethyl)nicotinonitrile], the IC50 in experiment [1] was under 10 nM. In addition, the AC50 in experiment [2] and in experiment [3] was 10 to 1000 nM each time.
As to `CCOc1cc([C@H](C)N2CCc3c(cc(CCN(C)CC)cc3-c3ccncc3Cl)C2=O)ncc1C#N` [Example 152, (S)-6-(1-(5-(3-chloropyridin-4-yl)-7-(2-(ethyl(methyl)amino)ethyl)-1-oxo-3,4-dihydroisoquinolin-2(1H)-yl)ethyl)-4-ethoxynicotinonitrile], the IC50 in experiment [1] fell in the range of 10 to 1000 nM. Besides, the AC50 in experiment [2] and in experiment [3] was 10 to 1000 nM throughout.
Consider `CNc1nccn1Cc1cc2c(c(C3CC3)c1)CCN([C@@H](C)c1cnc(F)c(OC)c1)C2=O` (single isomer, unassigned) [Example 78], for which the IC50 in experiment [1] is under 10 nM. In addition, the AC50 in experiment [2] and in experiment [3] was 10 to 1000 nM in each case.
`CCOc1cc(C(C)N2CCc3c(cc(CCN(C)CC)cc3C3CC3)C2=O)ncc1C#N` (stereo not drawn) [Example 158, 6-(1-(5-cyclopropyl-7-(2-(ethyl(methyl)amino)ethyl)-1-oxo-3,4-dihydroisoquinolin-2(1H)-yl)ethyl)-4-ethoxynicotinonitrile]: the IC50 in experiment [1] was in the range of 10 to 1000 nM. Besides, the AC50 fell in the range of 10 to 1000 nM in experiment [2] and 1000 to 25000 nM in experiment [3].
As for `CCOc1cc([C@H](C)N2CCc3c(cc(CCN(C)CC)cc3-c3cc(C)ncc3C(F)F)C2=O)ncc1C#N` [Example 172, (S)-6-(1-(5-(5-(difluoromethyl)-2-methylpyridin-4-yl)-7-(2-(ethyl(methyl)amino)ethyl)-1-oxo-3,4-dihydroisoquinolin-2(1H)-yl)ethyl)-4-ethoxynicotinonitrile], in experiment [1], the IC50 is under 10 nM. Besides, the AC50 in experiment [2] and in experiment [3] was 10 to 1000 nM in each case.
For `CCOc1cc([C@H](C)N2CCc3c(cc(CCN4CC[C@H]4C)cc3-c3ccc(F)nc3C)C2=O)ncc1C#N` [Example 235], in experiment [1], the IC50 is under 10 nM. Moreover, the AC50 in experiment [2] and in experiment [3] was 10 to 1000 nM in each case.
Turning to `CNc1nccn1Cc1cc(-c2cc(CO)cnc2Cl)c2ccn([C@@H](C)c3cccc(OC)c3)c(=O)c2c1` [Example 102, (S)-5-(2-chloro-5-(hydroxymethyl)pyridin-3-yl)-2-(1-(3-methoxyphenyl)ethyl)-7-((2-(methylamino)-1H-imidazol-1-yl)methyl)isoquinolin-1(2H)-one], the IC50 in experiment [1] lay in the range of 10 to 1000 nM. For the same compound, the AC50 in experiment [2] and in experiment [3] was 10 to 1000 nM each time.
With `CNc1nccn1Cc1cc2c(c(-c3cn(C)nc3C)c1)CCN([C@H](C)c1cc(OC)c(F)cn1)C2=O` [Example 71, (R)-5-(1,3-dimethyl-1H-pyrazol-4-yl)-2-(1-(5-fluoro-4-methoxypyridin-2-yl)ethyl)-7-((2-(methylamino)-1H-imidazol-1-yl)methyl)-3,4-dihydroisoquinolin-1(2H)-one], in experiment [1], the IC50 was in the range of 10 to 1000 nM. Moreover, the AC50 in experiment [2] and in experiment [3] was 10 to 1000 nM in each case.
On to `CCOc1cc([C@H](C)N2CCc3c(cc(CCN(C)CC)cc3-c3cn(CC)nc3C)C2=O)ncc1C#N` [Example 127, (S)-4-ethoxy-6-(1-(7-(2-(ethyl(methyl)amino)ethyl)-5-(1-ethyl-3-methyl-1H-pyrazol-4-yl)-1-oxo-3,4-dihydroisoquinolin-2(1H)-yl)ethyl)nicotinonitrile], for which, in experiment [1], the IC50 was under 10 nM. The AC50 in experiment [2] and in experiment [3] was 10 to 1000 nM throughout.
With `CCOc1cc(CN2CCc3c(Br)cc(Cn4ccnc4NC)cc3C2=O)cnc1C#N` [Example 2, 5-((5-bromo-7-((2-(methylamino)-1H-imidazol-1-yl)methyl)-1-oxo-3,4-dihydroisoquinolin-2(1H)-yl)methyl)-3-ethoxypicolinonitrile], the IC50 in experiment [1] lay in the range of 10 to 1000 nM. For the same compound, the AC50 in experiment [2] and in experiment [3] was 10 to 1000 nM each time.
In the case of `CCOc1cc([C@H](C)N2CCc3c(cc(CCN(C)CC)cc3-c3cc(N)ncc3Cl)C2=O)ncc1C#N` [Example 183, (S)-6-(1-(5-(2-amino-5-chloropyridin-4-yl)-7-(2-(ethyl(methyl)amino)ethyl)-1-oxo-3,4-dihydroisoquinolin-2(1H)-yl)ethyl)-4-ethoxynicotinonitrile], the IC50 in experiment [1] is under 10 nM. Besides, the AC50 in experiment [2] and in experiment [3] was 10 to 1000 nM each time.
In the case of `CCOc1cc(CN2CCc3c(cc(Cn4ccnc4C)cc3-c3cn(C)c(=O)cc3C(F)(F)F)C2=O)ncc1C#N` [Example 297], the IC50 in experiment [1] was under 10 nM. Further, the values for the AC50 in experiment [2] and in experiment [3] were 10 to 1000 nM and under 10 nM, respectively.

Source of the values: patent US20220289732A1, “HETEROCYCLIC WDR5 INHIBITORS AS ANTI-CANCER COMPOUNDS” (NOVARTIS AG, priority 2019, published 2022).
